The source of these data is publication PMC9455918, “Quinolizidines as Novel SARS-CoV-2 Entry Inhibitors” (International Journal of Molecular Sciences, 2022).

Where two headings read alike, the source gives them in different places.

A short description of data set [1]: in vitro. It is filed as cell-based. The conditions noted are these: human; concentration that reduced viability of 293T-ACE2 cells by 50%; 3 days. On the procedure:
The CellTiter-Glo® Luminescent Cell Viability Assay (Promega, Cat. # G7570 ) was used to determine the cytotoxicity of the aloperine derivatives. 293T-ACE2 cells were cultured in the presence of various concentrations of the compounds for 3 days. The cytotoxicity of the compounds was determined by following the protocol provided by the manufacturer. The 50% cytotoxic concentration (CC50) was defined as the concentration that caused a 50% reduction in cell viability.

In data set [2] the test system is PA/Puerto Rico/8/1934 Influenza A Virus (PR8). The conditions noted are these: cited from earlier work.
The test system of data set [3] is HIV-1NL4-3-nanoluc-sec. The conditions noted are these: previously described; ref [19],[20],[21],[22]; cited from earlier work.
The subject of data set [4] is Delta spike-pseudotyped virus. Nature of the data set: microbe, parasite or virus in culture. The conditions noted are these: 293T-ACE2 cells. It is filed as cell-based.
Data set [5] relates to Omicron BA.4/BA.5 spike-pseudotyped virus. Nature of the data set: microbe, parasite or virus in culture. The conditions noted are these: 293T-ACE2 cells. It is filed as cell-based.
For data set [6], the system named is Omicron BA.2 spike-pseudotyped virus. The data set is described as follows: microbe, parasite or virus in culture. The data set is classed as cell-based. The conditions noted are these: 293T-ACE2 cells.
The target of data set [7] is T1, cathepsin B (Homo sapiens, UniProt P07858).
T1 construct: purchased BPS bioscience 79590
The data set is described as follows: Cathepsin B inhibitor assay kit (BPS bioscience). The data set is classed as biochemical. The conditions noted are these: for Inhibitory activity against cathepsin B: tested at 20 µM, duplicated experiment.

In data set [8] the target is T2, cathepsin L (Homo sapiens, UniProt P07711).
T2 construct: purchased BPS bioscience
T2 sequence (P07711 114-333): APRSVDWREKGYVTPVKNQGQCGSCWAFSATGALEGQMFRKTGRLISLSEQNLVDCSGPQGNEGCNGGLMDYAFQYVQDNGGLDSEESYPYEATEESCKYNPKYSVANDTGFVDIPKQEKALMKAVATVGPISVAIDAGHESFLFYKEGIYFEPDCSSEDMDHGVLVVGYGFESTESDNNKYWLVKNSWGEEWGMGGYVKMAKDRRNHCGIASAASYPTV
Nature of the data set: Cathepsin L inhibitor assay kit (BPS bioscience). It is filed as biochemical. The conditions noted are these: tested at 20 µM, duplicated experiment.

Data set [9] relates to D614G spike-pseudotyped virus in 293T-ACE2 cells. The data set is classed as cell-based. The conditions noted are these: 5 µM, 2 h infection with D614G spike-pseudotyped virus.
The test system of data set [10] is murine leukemia virus envelope (MLV-env) pseudotyped virus. The data set is described as follows: microbe, parasite or virus in culture. It is filed as cell-based. The conditions noted are these: spike protein replaced with MLV-env, marked ** in Table 1.
Data set [11] concerns PA/Puerto Rico/8/1934 Influenza A Virus (PR8). The data set is described as follows: microbe, parasite or virus in culture. The data set is classed as cell-based. The conditions noted are these: new compound 9, no reference given.
For data set [12], the system named is HIV-1NL4-3-nanoluc-sec. The data set is classed as cell-based. The conditions noted are these: new compound 9, no reference given; Inac = CC50/IC50 ratio < 5.
[13] abbreviates: Severe acute respiratory syndrome coronavirus 2.

In general, CC50 refers to the concentration giving 50% cytotoxicity. The IC50 is the point on the concentration scale where inhibition reaches its midpoint.

In data set [1], `C1=C2CCCN(CCCCCNCc3ccccc3)C2C2CC1C1CCCCN1C2` (centres unmarked) [Compound 4] yielded a CC50 greater than 20 µM. The 50% inhibitory concentration (IC50) in data set [2] was greater than 40 µM; in data set [3], 0.84 µM.
`C1=C2CCCN(CCCCNCc3ccccc3)C2C2CC1C1CCCCN1C2` (centres unmarked) [Compound 5] displayed a CC50 in [1] greater than 20 µM. Further, the IC50 in data set [2] was greater than 40 µM; in [4] (setting [13]), 0.58 ± 0.15 µM; in data set [5] (setting [13]), 0.86 ± 0.25 µM; in data set [6] (setting [13]), 0.83 ± 0.21 µM; in [3], 0.96 µM; in data set [10] (Murine leukemia virus, read-out: Antiviral activity (IC50) against MLV-env pseudotyped virus), greater than 20 µM. Also, the “IC50, PA/Puerto Rico/8/1934 Influenza A Virus (PR8)” value (“IC50 … (PR8)” below) in [2] is recorded as “ineffective”. The results for the “Inhibitory activity against cathepsin B” value in [7] and in data set [7] (listed as compound 5) were “totally inactive” and “did not inhibit”, respectively. Also, the entries for the “Inhibitory activity against cathepsin L” value in data set [8] and in data set [8] (listed as compound 5) were “totally inactive” and “did not inhibit”, respectively. In data set [9], the “Spike protein (virus) puncta in 293T-ACE2 cells under confocal microscope” value is given as “observed as puncta”. The “Antiviral activity (IC50) against MLV-env pseudotyped virus” value in data set [10] was “inactive”.
With `O=C(NCCCCCCN1CCCC2CC3CC(CN4CCCCC34)C21)c1c(F)cc(Br)cc1F` (centres unmarked) [Compound 1], the CC50 in [1] was greater than 20 µM. Moreover, the IC50 in [2] is 0.091 µM; in data set [3], greater than 20 µM.
`Fc1ccc(CNCCCCN2CCCC3=CC4CC(CN5CCCCC45)C32)cc1` (centres unmarked) [Compound 9] displayed a CC50 in data set [1] greater than 10 µM. Moreover, the IC50 in [11] was 4.8 ± 1.4 µM. The “IC50, HIV-1NL4-3-nanoluc-sec” value in data set [12] is “Inac ^8”.
Compound `O=C(NCCCCCCCC(=O)N1CCCC2=CC3CC(CN4CCCCC34)C21)c1ccc(OC(F)(F)F)cc1` (centres unmarked) [Compound 8] yielded a CC50 in data set [1] greater than 20 µM. For the same compound, in data set [2], the half-inhibitory concentration (IC50) is greater than 28.5 µM and the “IC50 … (PR8)” value is “inactive”. For the same compound, in data set [3], the IC50 is greater than 20 µM and the “IC50, HIV-1NL4-3-nanoluc-sec” value is “inactive”.
Take `CCN(CC)CCCC(C)Nc1ccnc2cc(Cl)ccc12` (centres unmarked) [Chloroquine diphosphate, reference compound]: the “Spike protein (virus) puncta in 293T-ACE2 cells under confocal microscope” value in data set [9] is on record as “no accumulation of viral puncta”.
In [1], `CC(C)(C)c1ccc(C(=O)NCCCCCCN2CCCC3=CC4CC(CN5CCCCC45)C32)cc1` (centres unmarked) [Compound 7] displayed a CC50 greater than 20 µM. Besides, the half-inhibitory concentration (IC50) in [2] is 0.83 µM; in data set [3] it was 0.8 µM.
`C1=C2CCCN[C@H]2[C@@H]2C[C@H]1[C@H]1CCCCN1C2` [Aloperine, aloperine, reference compound] registered a CC50 in data set [1] greater than 20 µM. Besides, the half-inhibitory concentration (IC50) was 14.5 µM in [2] and 1.75 µM in data set [3]. Moreover, in data set [7], the “Inhibitory activity against cathepsin B” value was “inactive”. Further, the “Inhibitory activity against cathepsin L” value in [8] was “inactive”.
Consider `CCOC(=O)[C@H]1O[C@@H]1C(=O)N[C@@H](CC(C)C)C(=O)NCCC(C)C` [Compound E64D, E64D, reference compound], for which the IC50 amounted to 0.45 ± 0.082 µM in data set [4], 0.34 ± 0.081 µM in [5] and 0.37 ± 0.066 µM in data set [6].
`CC(C)C[C@H](NC(=O)[C@H]1O[C@@H]1C(=O)O)C(=O)NCCCCN=C(N)N` [Compound E64, E64, reference compound]: the “Inhibition of enzyme activity (cathepsin B)” value in data set [7] (at 0.1 µM) was “more than 95%”.
In [1], `O=C(Cc1ccc(S(=O)(=O)C(F)(F)F)cc1)NCCCCN1CCCC2=CC3CC(CN4CCCCC34)C21` (centres unmarked) [Compound 3] came in with a CC50 greater than 20 µM. The IC50 is greater than 20 µM in data set [2] and 0.12 µM in data set [3]. Further, the “IC50 … (PR8)” value in data set [2] is given as “without anti-influenza virus activity”.
In data set [1], `COc1ccc(C(=O)NCCCCN2CCCC3=CC4CC(CN5CCCCC45)C32)cc1` (centres unmarked) [Compound 6] yielded a half-maximal cytotoxic concentration (CC50) greater than 20 µM. Besides, the IC50 in data set [2] is greater than 20 µM; in [3] it was 11.4 µM.
For the compound `O=C(NCCN1CCCC2=CC3CC(CN4CCCCC34)C21)c1ccccc1F` (centres unmarked) [Compound 2], the IC50 is 5.5 µM in data set [2] and greater than 25 µM in data set [3].
